“Also recorded” adds a separate entry of the source. Structures can show the parent of a compound that is named as a salt.
What was measured:
Format in all cases: physicochemical
[1] = Solubility of salts in water and in 0.2 M phosphate buffer pH 6 at 37° C. after 4 hours (HPLC-DAD); details: for Dissolution behaviour in aqueous media (gelling, wettability): salt screen, water and/or 0.2 M phosphate buffer pH 6; for pH (4 h): pH at end of equilibration
Outline: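 About 5 mg of salt received 200 μL aliquots of water or 0.2 M phosphate buffer pH 6, up to 1 mL, and was stirred at 37 °C for 4 h. After centrifugation and 0.2 […] PTFE filtration, dissolved concentration was determined by HPLC-DAD against voruciclib calibration, and final pH was recorded.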

[2] = Qualitative solubility determination in water at room temperature, with observation of gel formation; details: for Behaviour upon addition of water (gel formation): small amount of water added to solid
Method: The aqueous solubility of Oxa2 (starting material) was assessed by the qualitative solubility determination approach. To 5.4 mg of Oxa2, water was added in steps of 50 μl until the material was dissolved (Exp. ID: SAS1). Visual inspection by the naked eye was used to decide whether complete dissolution occurred.
After the addition of 7.5 ml water, Oxa2 was not dissolved in water at room temperature. The suspension was heated to 50° C. upon which complete dissolution occurred, as indicated by a clear solution.
The aqueous solubility of Pho1 (Exp. ID: TCP23) was assessed by the qualitative solubility determination approach. To 5.6 mg of Pho1, water was added in steps of 50 μl until the material was dissolved (Exp. ID: SAS2). Visual inspection by the naked eye was used to decide whether complete dissolution occurred. After the addition of 700 μl water, Pho1 was not dissolved in water at room temperature whereas after a subsequent addition of 200 μl water (900 μl in total), the material completely dissolved.
The solubility of Mao1 in water was determined by adding small aliquots of water to the material until it was dissolved.

[3] = Physical stability of solid forms upon drying under vacuum, HT-XRPD; details: for Physical stability upon drying under deep/high vacuum: oxalate, phosphate, malonate forms, 5 mbar, 18 h
[4] = 0.2 M phosphate buffer pH 6, 37° C., 4 hours
[5] = 0.2M phosphate buffer pH 6, 37° C., 4 hours, about 1 mg salt in 1 mL
[6] = 0.2M phosphate buffer pH 6, 37° C., 4 hours, about 5 mg salt in 1 mL
[7] = 0.2 M phosphate buffer pH 6, 37° C., 4 hours, XRPD
[8] = 0.2M phosphate buffer pH 6, 37° C., about 1 mg salt in 1 mL
[9] = 0.2M phosphate buffer pH 6, 37° C., about 5 mg salt in 1 mL
[10] = water, 37° C., 4 hours, about 1 mg salt in 1 mL
[11] = water, 37° C., 4 hours, about 5 mg salt, up to 1 mL
[12] = water, 37° C., about 1 mg salt in 1 mL
[13] = water, 37° C., about 5 mg salt, up to 1 mL

Solubility in phosphate buffer [1, 4]	solubility [1, 5]	solubility [1, 6] [µg/mL]	Form (4 h) of residual solid [1, 8]	pH (4 h) [1, 8]	Form (4 h) of residual solid [1, 9]	pH (4 h) [1, 9]	solubility [1, 10]	solubility [1, 11]	pH (4 h) [1, 12]	pH (4 h) [1, 13]	SMILES	Dissolution behaviour in aqueous media (gelling, wettability) [1]	Behaviour upon addition of water (gel formation) [2]	Physical stability upon drying under deep/high vacuum [3]	Solids recovered / salt dissociation after solubility determination in buffer [1, 7]	also measured
–	–	–	–	–	–	–	–	–	–	–	CN1CC[C@H](c2c(O)cc(O)c3c(=O)cc(-c4ccc(C(F)(F)F)cc4Cl)oc23)[C@H]1CO (stereo in doubt) [voruciclib malonate, 2-(2-chloro-4-(trifluoromethyl)phenyl)-5,7-dihydroxy-8-((2S,3R)-2-(hydroxymethyl)-1-methylpyrrolidin-3-yl)-4H-chromen-4-one malonate salt]	no gelling	gelling was not observed when exposed to water	–	–	Solubility pH 6 [1, 4]: 0.07 mg/mL; Solubility water ([1]; water, 37° C., 4 hours): 4400 µg/mL; solubility at 4 h ([1]; water, 37 °C, thermodynamic from solid, secondary salt screen (FIG. 290)): > 5000 µg/mL
about 0.03 mg/mL	hazy	30	Free	6.0	Free	5.8	(0.9) mg/mL	(5.2) mg/mL	4.6	3.7	CN1CCC(c2c(O)cc(O)c3c(=O)cc(-c4ccc(C(F)(F)F)cc4Cl)oc23)C1CO.O=P(O)(O)O (centres unmarked) [Pho1]	no gelling was observed	became a gel when exposed to water; also recorded: became a gel upon addition of water; also recorded: became a gel-like material	physically stable; also recorded: remained stable	salt had dissociated in the buffer solution	Vacuum ([3]; phosphate salt cooling crystallization, form after drying under deep vacuum (5 mbar), label = ambient-dried form): Pho1; Solid forms Vacuum ([3]; phosphate salt thermocycling solids, form after drying under deep vacuum (5 mbar, 18 h), HT-XRPD, label = ambient-dried form): Pho1
70 µg/mL	20 µg/mL	70	Free	6.2	Free	5.8	(0.9) mg/mL	4440 µg/mL	4.1	3.5	CN1CC[C@@H](c2c(O)cc(O)c3c(=O)cc(-c4ccc(C(F)(F)F)cc4Cl)oc23)[C@@H]1CO.O=C(O)CC(=O)O [Mao1]	there was no gelling or increase in viscosity observed	no gel-formation was observed; also recorded: gel formation was not observed	physically stable	dissociation of the salt occurred	Solubility in water ([1]; water, 37° C., 4 hours): 4400 µg/mL; Solids recovered after solubility determination in water ([1]; water, 37° C., 4 hours, XRPD): the solids recovered were still identical to Mao1; Form (4 h) of residual solid [1, 13]: Mao1; Solubility in water at room temperature ([2]; qualitative determination by adding aliquots of water, visual): approximately 13 mg/ml
